In PubChem BioAssay AID1159564 (GlaxoSmithKline (GSK), 2015):
pIC50: −log10 of the molar value. Calls of active or inactive are those of the source. How the calls were made is not given here.

System: L. donovani-infected THP-1 macrophages, intracellular amastigote imaging
Assay: antileishmanial activity in infected THP-1 macrophages – imaging, THP-1 host macrophages, host toxicity (AID 1159564)
[1] = measured here: THP-1 host cell toxicity
[2] = measured here: amastigotes per macrophage

SMILES | IC50 | pIC50 [1] | pIC50 [2] | pIC50
Cc1nc(-c2ccncc2)ncc1C(C)NC(=O)c1ccc(Cl)s1 (stereo unspecified) | > 50 µM (inactive) | < 4.30 | < 4.30 | 
Cc1[nH]n2c(=O)c3c(nc2c1-c1ccc(Cl)cc1)CCCC3 | > 50 µM (inactive) | 4.89 | < 4.30 | 
COc1ccc2nc(N(Cc3cccnc3)C(=O)C3CCC3)sc2c1 | > 50 µM (inactive) | < 4.30 | 4.30 | 
O=c1[nH]cnc2c([C@@H]3O[C@H](CO)[C@@H](O)[C@H]3O)[nH]nc12 |  | < 4.30 | 6.40 | 5.70
CCOc1cnn(C)c(=O)c1Nc1ccc(C(=O)NCc2ccc(F)cc2)cc1 | > 50 µM (inactive) | 4.49 | < 4.30 | 
Cn1c(CC(=O)NNC(=O)c2ccc3ccccc3n2)nc2ccccc21 |  | < 4.30 | 6.10 | 5.89
O=C(NCCNc1noc(-c2ccc([N+](=O)[O-])cc2)n1)c1ccc(Cl)cc1 | > 50 µM (inactive) | 4.80 | < 4.30 | 
COc1cccc2sc(CN(C)C(=O)C3CNCCN3c3ccc(F)cc3)c(C)c12 (stereo unspecified) |  | 4.89 | 5.40 | 5.20
O=C(Nc1ccc(Br)c(Cl)c1)Nc1ccc2c(c1)OCO2 | > 50 µM (inactive) | < 4.30 | < 4.30 | 
Cn1cc(CN2CCN(c3ccc4c(c3)CCN(C(=O)[C@H]3C[C@@H]3c3ccccc3)CC4)CC2)cn1 |  | 5.20 | 6.00 | 4.49
Cc1cc(C)cc(NS(=O)(=O)c2cc(-c3cc(C)[nH]n3)ccc2C)c1 |  |  | 5.49 | 5.10
CC(CNS(=O)(=O)c1ccc(OC(F)F)cc1)c1ccc(NC(=O)c2ccncc2)cc1 (stereo unspecified) | > 50 µM (inactive) | 4.80 | 5.30 | 
O=c1cc(NCCCNCc2c[nH]c3ccc(Br)cc23)[nH]c2ccccc12 | > 50 µM (inactive) | < 4.30 | < 4.30 | 
Cc1cc(Br)sc1CNCCCNc1cc(=O)c2ccccc2[nH]1 |  | 4.70 | 4.70 | 4.60
O=C(CC1(O)C(=O)N(Cc2cccs2)c2ccc(Br)cc21)c1cccnc1 (stereo unspecified) | > 50 µM (inactive) | 4.70 | < 4.30 | 
COc1ccc(-c2csc(NC(=O)c3ccc([N+](=O)[O-])s3)n2)cc1 |  | < 4.30 | 5.80 | 5.40
COc1cnc2ccc(=O)n(CCN3CCC(NC(=O)c4ccc(Cl)cc4)CC3)c2c1 | > 50 µM (inactive) | < 4.30 | 5.40 | 
CS(=O)(=O)NC1CCC(Oc2cc3cnccc3cc2-c2ccsc2)CC1 (stereo unspecified) |  | 4.80 | 4.70 | 4.30
O=S1N=C(NCCCN(Cc2ccc(F)cc2)c2ccccn2)C(NCc2ccncc2)=N1 (stereo unspecified) | > 50 µM (inactive) | 4.60 | 4.60 | 
COc1ccc(S(=O)(=O)Nc2ccccc2OC)cc1NC(=O)CCCc1c[nH]c2ccccc12 | > 50 µM (inactive) | < 4.30 | < 4.30 | 
O=C(CCCn1cnc([N+](=O)[O-])n1)Nc1cccc(Cl)c1 | > 50 µM (inactive) | < 4.30 | < 4.30 | 
Cc1ccnc(NS(=O)(=O)c2ccc(NC(=O)c3ccc([N+](=O)[O-])s3)cc2)n1 |  | 5.00 | 5.30 | 5.00
CN(CCOc1ccc(Cl)cc1)Cc1nc(N)nc(N(C)C)n1 |  | < 4.30 | 5.30 | 5.10

SMILES | IC50 | pIC50 [1] | pIC50 [2] | pIC50
Cn1nc([N+](=O)[O-])nc1N1CCCCC1 | > 50 µM (inactive) | < 4.30 | < 4.30 | 
COc1ccc(CNc2cc(C3CC3)nc(-c3nccn3C)n2)cc1 |  | 4.89 | 6.10 | 6.10
O=C(Cn1cnc2cc([N+](=O)[O-])ccc2c1=O)NCCc1ccc(Cl)cc1Cl | > 50 µM (inactive) | < 4.30 | < 4.30 | 
CCNc1cc(-c2ccccn2)nc(Nc2ccccc2)n1 |  | 4.70 | 6.20 | 6.10
C=CCn1nc([N+](=O)[O-])nc1Oc1ccc(Cl)cc1Cl | > 50 µM (inactive) | 4.40 | 4.40 | 
CCC(CC)C(=O)Nc1cccc(C(=O)Nc2nnc(C3CCCCC3)s2)c1 | > 50 µM (inactive) | < 4.30 | < 4.30 | 
COCCn1c(-c2ccc3c(c2)OCO3)cnc1NCc1ccccc1OC |  | 4.40 | 5.30 | 5.00
CC(C)n1c(-c2nonc2N)nc2cccc(OCCN3CCCC3)c21 |  | 4.49 | 4.70 | 4.49
Cc1cc(=O)n2nc(Oc3ccc(C#N)cc3Cl)sc2n1 |  | 4.49 | 4.49 | 4.49
COc1ccc2c(Cl)c(C(=O)N3CCC3)sc2c1Cl | > 50 µM (inactive) | < 4.30 | < 4.30 | 
O=C(Nc1nccs1)c1ccccc1Cn1cc([N+](=O)[O-])cn1 | > 50 µM (inactive) | < 4.30 | < 4.30 | 
CNC(=O)C1Cc2ccccc2N1C(=O)Cc1ccc(OC)cc1 (stereo unspecified) |  | 5.10 | 4.89 | 5.10
O=C(Cn1cnc([N+](=O)[O-])n1)Nc1ccc(Cl)cc1C(=O)c1ccccc1 | > 50 µM (inactive) | < 4.30 | < 4.30 | 
COc1cc(Nc2nccc(Nc3onc(C)c3C)n2)cc(S(=O)(=O)C2CCOCC2)c1 | > 50 µM (inactive) | 4.40 | 5.30 | 
CN(C)c1ccc(-c2cc3nccnc3c(OC[C@H]3CCCNC3)n2)cn1 |  | 4.70 | 4.60 | 4.70
COc1cc(F)c2ncc(F)c(CCN3CC[C@H](NCc4cc5c(cn4)OCS5)[C@@H](O)C3)c2c1 |  | 4.80 | 4.89 | 4.80
c1ccc(CCNCc2cncc3nc(-c4cnccn4)n(C4CCCCC4)c23)cc1 | > 50 µM (inactive) | < 4.30 | < 4.30 | 
CCc1c(C)nc(-n2nc(C)cc2NC(=O)COc2ccccc2F)[nH]c1=O |  | 5.40 | 5.30 | 5.10
Cc1ccc(C)c(CN2C(=O)NC3(CCc4ccccc43)C2=O)c1 (stereo unspecified) | > 50 µM (inactive) | < 4.30 | 4.80 | 
CCCCc1cc(Nc2cc(C3CCC3)[nH]n2)nc(N2CCC2C(N)=O)n1 (stereo unspecified) |  | 6.00 | 6.20 | 5.70
COc1cc(Cl)c(C)cc1NC(=O)c1ccc([N+](=O)[O-])s1 |  | < 4.30 | 5.30 | 5.20
COc1ccc(-c2nc3ccncc3c(=O)n2CCOc2ccccc2)cc1 | > 50 µM (inactive) | < 4.30 | < 4.30 | 
Cc1cccc(N2CCCN(Cc3c[nH]c4ccccc34)CC2)n1 |  | 5.00 | 5.00 | 5.00

SMILES | IC50 | pIC50 [1] | pIC50 [2] | pIC50
COc1ccc(C)cc1-c1csc(NC(=O)C(C)n2ccnc2)n1 (stereo unspecified) | > 50 µM (inactive) | < 4.30 | < 4.30 | 
O=C(Nc1ccc(Br)cn1)c1ccc(Cn2cnc([N+](=O)[O-])n2)cc1 | > 50 µM (inactive) | < 4.30 | < 4.30 | 
CCS(=O)(=O)c1cccc(C(=O)Nc2nc(-c3ccccn3)cs2)c1 |  | 4.70 | 5.49 | 5.40
CC1CN(Cc2ccc(C#N)cc2)CCN1c1ccc(NC(=O)c2ccccc2F)cc1 (stereo unspecified) |  | < 4.30 | 5.30 | 5.00
CC(C)c1cc(C(=O)N2CCCC(c3cc4ncccc4[nH]3)C2)on1 (stereo unspecified) | > 50 µM (inactive) | < 4.30 | < 4.30 | 
O=C(Nc1cccc(Cl)c1)Nc1ccc([N+](=O)[O-])cc1Cl |  | 4.60 | 5.70 | 5.49
O=C(Nc1nc2ccccc2[nH]1)c1ccc2nc[nH]c2c1 |  | < 4.30 | 5.49 | 5.30
CN(C)S(=O)(=O)c1cccc(CSc2nnc(-c3ccc4c(c3)OCO4)o2)c1 |  | < 4.30 | 6.20 | 5.70
NC(=O)c1ccc(-c2cccc(OCCN3CCN(C4CCCCC4)CC3)c2)cc1 |  | 4.49 | 5.00 | 4.30
COc1ccccc1C(=O)Nc1nnc(-c2ccc3c(c2)OCO3)s1 |  | 4.80 | 6.20 | 6.00
N#Cc1cc(N2CCCC2=O)ccc1Sc1ccccc1CO | > 50 µM (inactive) | < 4.30 | < 4.30 | 
O=C1COC(c2ccccc2)(c2ccccc2)CN1C1CCN(Cc2ccc(-n3ccnc3)cc2)CC1 |  | 4.80 | 4.89 | 4.80
Cc1sc(C)c(C(F)(F)F)c1CNCCCNc1cc(=O)c2ccccc2[nH]1 |  | 4.49 | 4.60 | 4.30
O=C(Nc1ncc([N+](=O)[O-])s1)C1CC1 | > 50 µM (inactive) | < 4.30 | < 4.30 | 
CCN(Cc1cccs1)C(=O)CSc1nnc(-c2ccc3c(c2)OCO3)o1 |  | < 4.30 | 5.70 | 5.70
COc1ccc2ncc(=O)n(CCN3CC[C@H](NCc4ncc(Cl)c5[nH]ncc45)[C@H](O)C3)c2n1 | > 50 µM (inactive) | < 4.30 | < 4.30 | 
CCOc1ccc(CC(=O)N2c3ccccc3CC2C(=O)NC)cc1 (stereo unspecified) | > 50 µM (inactive) | < 4.30 | < 4.30 | 
Cc1nc(N2CC(C)OC(C)C2)sc1C(=O)Nc1ccc2c(c1)OCO2 (stereo unspecified) |  | < 4.30 | 5.49 | 5.10
O=C(NCC1CCCCC1)c1cnns1 | > 50 µM (inactive) | < 4.30 | 5.00 | 
O=C(CSc1ccc(-c2ccccn2)nn1)Nc1ccc(Cl)cc1 | > 50 µM (inactive) | < 4.30 | < 4.30 | 
O=C(CN(Cc1ccccn1)Cc1ccccn1)NC1Cc2ccccc2C1 |  | < 4.10 | 5.30 | 5.30
Cc1cc(N2CCc3ccccc3C2)nc(Nc2ccc(S(=O)(=O)N3CCOCC3)cc2)n1 |  | 4.60 | 5.80 | 5.30
CN(Cc1nc2ccccc2s1)C(=O)C=Cc1cc2ccccc2o1 | > 50 µM (inactive) | < 4.30 | 4.80 | 
